Measured values: PubChem BioAssay AID2060512 (Molecular Pharmacology Branch, DTP, NCI, 2025)
Values joined by “and” are separate entries in the source; they are usually repeats but may differ in a detail not shown here. Identical values can stand only once.

Test system: 186277-243-T-J2-PDC complex spheroid viability
Assay: Anticancer human tumor 186277-243-T-J2-PDC patient-derived colon adenocarcinoma cell line growth inhibition [GQUAD]
Details: for viability, T/C: stronger effect = lower value
Excerpt: DNA G-quadruplex Stabilizer Agents in Combinations in Complex Spheroids
A high-throughput screen of multi-cell type tumor spheroids was designed to identify active combinations of DNA G-quadruplex stabilizer agents and targeted small molecules. Complex spheroids include a stromal component modeled by human endothelial cells (HUVEC) and fibroblasts modeled by human mesenchymal stem cells (MSCs). The concentration ranges selected for each drug and investigational agent were based upon clinically achievable concentrations if the clinical Cmax of the agent was known.
Compounds. The drugs and investigational agents: pidnarulex (CX-5461; NSC782164), APTO-253 (NSC789042), BRACO-19 (NSC847499), peposertib (NSC802822), ceralasertib (NSC780249), elimusertib (NSC800525), camonsertib (NSC841442), AZD-1390 (NSC803789), olaparib (NSC753686), talazoparib (NSC767125), ART-558 (NSC835418), sotorasib (NSC818433), MRTX-1133 (NSC836407), SN-38 (NSC673596), topotecan (NSC609699), etoposide (NSC141540), doxorubicin (NSC123127), gemcitabine (NSC613327), 5-fluorouracil (NSC19893), paclitaxel (NSC125973), vemurafenib (NSC761431), panobinostat (NSC761190), R-306465 (JNJ-16241199; NSC773264), adavosertib (NSC754352), TP-3654 (NSC805149), carboplatin (NSC241240), KSQ-4279 (NSC840948), and staurosporine (NSC755774) were obtained from the National Cancer Institute (NCI) Developmental Therapeutics Program Chemical Repository (34). The FDA-approved anticancer drug set is available from the NCI Developmental Therapeutics Program. […] The stock solutions were prepared in dimethyl sulfoxide (DMSO, Sigma-Aldrich, St. Louis, MO, cat. D2650) at 800-fold the tested concentration and stored at -70 degrees C prior to their use. All drugs and investigational agents were tested over a range starting from a high concentration at or near the clinical Cmax and decreasing in half-log increments. If the clinical Cmax for an agent had not been determined, the highest concentration tested was 10 microM.
2.3 Cell Culture. All cells were maintained in an incubator at 37 degrees C and 5% CO2 with 95% humidity. The PDC lines were cultured according to standard operating procedures established by the NCI PDMR. All PDCs were thawed and cultured in Matrigel-coated flasks prepared with a working solution of 1X Ham's F-12 nutrient mix, without supplementation (Invitrogen, cat. 11765054), 100 U/mL penicillin-streptomycin (Invitrogen, cat. 15140122), and 2.5% Matrigel (Corning Inc., cat. 354248) for the first three passages. The 857933-349-R-J2-PDC line was cultured in 6C/Colon 1B media, which includes advanced DMEM/F-12 (Thermo Fisher Scientific, cat. 12634028), 10 mM HEPES (Thermo Fisher Scientific, cat. 15630080), 1X GlutaMAX supplement (Thermo Fisher Scientific, cat. 35050061), 0.1 mg/mL primocin (InvivoGen, cat. ant-pm-2), 10% defined fetal bovine serum, heat inactivated (HyClone Laboratories Inc., cat. SH30070.03HI), 50% L-WRN conditioned media (ATCC, cat. CRL-3276), 1.25 mM N-Acetyl-L-cysteine (Sigma-Aldrich, cat. A9165), 10 mM nicotinamide (Sigma-Aldrich, cat. N0636), 1X B-27 supplement (Thermo Fisher Scientific, cat. 17504044), 1X N-2 supplement (Thermo Fisher Scientific, cat. 17502048), 10 microM Y-27632 dihydrochloride (Tocris Bioscience, cat. 1254), and 50 ng/mL human EGF recombinant protein (Thermo Fisher Scientific, cat. PHG0311). The 485176-168-R4-J1-PDC line was cultured in Panc media, which includes all 6C/Colon 1B media components plus 100 ng/mL human FGF-10 (Thermo Fisher Scientific, cat. 100-26), 500 nM SB-431542 (Selleckchem, cat. S1067), and gastrin (Tocris, cat. 3006).
[…]
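Also: spheroids exposed to drugs for 7 days.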
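For viability, T/C in this document: 100% = DMSO vehicle control viability.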

With `CCc1c2c(nc3ccc(O)cc13)-c1cc3c(c(=O)n1C2)COC(=O)[C@]3(O)CC` the viability, T/C (compound 0.000999 µM) was 88.2% and 83.6% and 97.2%, the viability, T/C (compound 0.00316 µM) was 72.1% and 57.3% and 65.1% and the viability, T/C (compound 0.00999 µM) was 50.2% and 50.4% and 45.2%. The viability, T/C (compound 0.0316 µM) was 30.8% and 29.4% and 34.3%, the viability, T/C (compound 0.0999 µM) was 21.3% and 14.5% and 21.4% and the viability, T/C (compound 0.316 µM) was 18.9% and 11.2% and 16.2%. The IC50 (curve of compound) was 9.82 nM and 7.08 nM and 7.82 nM.
Work on `Cc1[nH]c2ccccc2c1CCNCc1ccc(/C=C/C(=O)NO)cc1` + Cc1cnc(CNC(=O)c2c(=O)c3ccc(N4CCCN(C)CC4)nc3n3c2sc2ccccc23)cn1 yielded an IC50 (curve of first compound, second compound 0.0316 µM) of 30.9 nM, an IC50 (curve of first compound, second compound 0.1 µM) of 17.9 nM and an IC50 (curve of first compound, second compound 0.316 µM) of 10.2 nM. For the same compound, the IC50 (curve of first compound, second compound 1 µM) was < 0.999 nM, the IC50 (curve of first compound, second compound 3.16 µM) was < 0.999 nM and the IC50 (curve of first compound, second compound 10 µM) was < 0.999 nM. For the same compound, the viability, T/C (second compound 0.0316 µM, first compound 0.000999 µM) was 108%, the viability, T/C (second compound 0.0316 µM, first compound 0.00316 µM) was 101% and the viability, T/C (second compound 0.0316 µM, first compound 0.00999 µM) was 110%. The viability, T/C (second compound 0.0316 µM, first compound 0.0316 µM) was 48.9%, the viability, T/C (second compound 0.0316 µM, first compound 0.0999 µM) was 13.6% and the viability, T/C (second compound 0.0316 µM, first compound 0.316 µM) was 1.14%. For the same compound, the viability, T/C (second compound 0.1 µM, first compound 0.000999 µM) was 77.5%, the viability, T/C (second compound 0.1 µM, first compound 0.00316 µM) was 79.7% and the viability, T/C (second compound 0.1 µM, first compound 0.00999 µM) was 61.4%. It also gave a viability, T/C (second compound 0.1 µM, first compound 0.0316 µM) of 36.7%, a viability, T/C (second compound 0.1 µM, first compound 0.0999 µM) of 15.4% and a viability, T/C (second compound 0.1 µM, first compound 0.316 µM) of 0.78%. It also gave a viability, T/C (second compound 0.316 µM, first compound 0.000999 µM) of 58.4%, a viability, T/C (second compound 0.316 µM, first compound 0.00316 µM) of 52.8% and a viability, T/C (second compound 0.316 µM, first compound 0.00999 µM) of 49.2%. The viability, T/C (second compound 0.316 µM, first compound 0.0316 µM) was 34.9%, the viability, T/C (second compound 0.316 µM, first compound 0.0999 µM) was 9.31% and the viability, T/C (second compound 0.316 µM, first compound 0.316 µM) was 1.35%. It also gave a viability, T/C (second compound 1 µM, first compound 0.000999 µM) of 40.5%, a viability, T/C (second compound 1 µM, first compound 0.00316 µM) of 40.9% and a viability, T/C (second compound 1 µM, first compound 0.00999 µM) of 38.4%. The viability, T/C (second compound 1 µM, first compound 0.0316 µM) was 20%, the viability, T/C (second compound 1 µM, first compound 0.0999 µM) was 4.65% and the viability, T/C (second compound 1 µM, first compound 0.316 µM) was 0.08%. It also gave a viability, T/C (second compound 3.16 µM, first compound 0.000999 µM) of 35%, a viability, T/C (second compound 3.16 µM, first compound 0.00316 µM) of 38.6% and a viability, T/C (second compound 3.16 µM, first compound 0.00999 µM) of 28.3%. For the same compound, the viability, T/C (second compound 3.16 µM, first compound 0.0316 µM) was 21.6%, the viability, T/C (second compound 3.16 µM, first compound 0.0999 µM) was 0.18% and the viability, T/C (second compound 3.16 µM, first compound 0.316 µM) was 0.11%. The viability, T/C (second compound 10 µM, first compound 0.000999 µM) was 34.7%, the viability, T/C (second compound 10 µM, first compound 0.00316 µM) was 36.3% and the viability, T/C (second compound 10 µM, first compound 0.00999 µM) was 28.8%. The viability, T/C (second compound 10 µM, first compound 0.0316 µM) was 18.9%, the viability, T/C (second compound 10 µM, first compound 0.0999 µM) was 0.27% and the viability, T/C (second compound 10 µM, first compound 0.316 µM) was 0.24%.
`C=CC(=O)N1CCN(c2nc(=O)n(-c3c(C)ccnc3C(C)C)c3nc(-c4c(O)cccc4F)c(F)cc23)C(C)C1` (stereo unspecified) was tested, and the viability, T/C (compound 0.0316 µM) was 91.3% and 93.7% and 101%, the viability, T/C (compound 0.1 µM) was 82.3% and 102% and 89.8% and the viability, T/C (compound 0.316 µM) was 94% and 91.1% and 104%. For the same compound, the viability, T/C (compound 1 µM) was 108% and 96.1% and 91.2%, the viability, T/C (compound 3.16 µM) was 92.6% and 117% and 98% and the viability, T/C (compound 10 µM) was 87.6% and 78.8% and 95.7%. For the same compound, the IC50 (curve of compound) was > 10000 nM.
